Assay in all cases: NCI tumour cell line growth inhibition, 48 h
Experiment [1] deals with NCI-H226.
For experiment [2], the system named is MCF7.
In experiment [3] the test system is SF-268.
Experiment [4] relates to OVCAR-8.
Experiment [5] deals with OVCAR-3.
Experiment [6] has as its system CCRF-CEM.
Experiment [7] relates to IGROV-1.
The subject of experiment [8] is Hs-578T.
Experiment [9] has as its system HCT-116.
The subject of experiment [10] is 786-0.
In experiment [11] the test system is SNB-19.
For experiment [12], the system named is MDA-N.
The subject of experiment [13] is HOP-92.
Experiment [14] deals with OVCAR-5.
In experiment [15] the test system is NCI-H23.
Experiment [16] concerns RPMI-8226.
Experiment [17] deals with KM12.
Experiment [18] has as its system A498.

Molecules are shown by their SMILES.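 Where inhibition never reached the appropriate level, the endpoint shown equals the highest concentration tested. Otherwise, values were interpolated linearly from a five-concentration, 48-hour dose response in 96-well plates. GI50: concentration for 50% inhibition of growth.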 Active and inactive are the calls of the source. Rule as the data show it: active = GI50 up to about 1.1 µM and inactive = higher.

With `O=C1CC(C(=O)O)Cc2c(Br)ccc(O)c21` (configuration not stated), the GI50 in experiment [1] was 95.9 µM (inactive); in experiment [2], > 100 µM (inactive); in experiment [3] it was > 100 µM (inactive); in experiment [4] it was > 100 µM (inactive); in experiment [5], > 100 µM (inactive); in experiment [6], > 100 µM (inactive). The GI50 in experiment [7], in experiment [8], in [9], in experiment [10], in experiment [11] and in experiment [12] was > 100 µM (inactive) in each case. Further, the GI50 was 29 µM (inactive) in experiment [13]; > 100 µM (inactive) in [14]; > 100 µM (inactive) in [15]; > 100 µM (inactive) in experiment [16]; > 100 µM (inactive) in experiment [17].

Consider `Nc1nc(NNc2ccccc2F)cc(=O)[nH]1`, for which the GI50 in experiment [18] is > 100 µM (inactive); in experiment [1], > 100 µM (inactive); in experiment [2], > 100 µM (inactive); in experiment [4], > 100 µM (inactive); in [5], > 100 µM (inactive); in experiment [6], 78.5 µM (inactive). For the same compound, the GI50 was > 100 µM (inactive) in experiment [7]; > 100 µM (inactive) in [8]; > 100 µM (inactive) in experiment [9]; 58.1 µM (inactive) in [10]; > 100 µM (inactive) in experiment [11]; > 100 µM (inactive) in experiment [12]. The GI50 is > 100 µM (inactive) in experiment [14], 54.2 µM (inactive) in [16] and > 100 µM (inactive) in [17].

As for `COCOc1cc(OC)ccc1C/C=N/O`, the GI50 in [1], in experiment [2], in experiment [3], in [4], in experiment [5] and in experiment [6] was > 100 µM (inactive) each time. Also, the GI50 in experiment [7], in [8], in experiment [9], in experiment [10], in experiment [11] and in experiment [12] was > 100 µM (inactive) each time. Also, the GI50 in [13], in experiment [14], in experiment [15] and in experiment [17] was > 100 µM (inactive) in each case.

Take `Cc1nnc(CC#N)n1NC(=O)CC#N`: the GI50 in experiment [18], in experiment [2], in [3], in [4], in experiment [5] and in experiment [6] was > 100 µM (inactive) throughout. In addition, the GI50 in [7], in experiment [8], in [9], in [10], in [11] and in experiment [12] was > 100 µM (inactive) each time. Also, the GI50 in experiment [13], in experiment [14], in experiment [15] and in [17] was > 100 µM (inactive) in each case.

In the case of `CCc1c(O)nc(Nc2nc3ccccc3[nH]2)[nH]c1=O`, the GI50 in [18], in experiment [1], in experiment [2], in [3], in [4] and in experiment [5] was > 100 µM (inactive) in each case. For the same compound, the GI50 in [6], in [7], in [8], in experiment [9], in experiment [10] and in experiment [11] was > 100 µM (inactive) throughout. In addition, the GI50 in [12] was > 100 µM (inactive); in experiment [13] it was 27.7 µM (inactive); in experiment [14], > 100 µM (inactive); in experiment [15], > 100 µM (inactive).

Take `C=CCN1C[C@H](C)N([C@H](c2ccc(C(=O)N(CC)CCO)cc2)c2cccc(OC)c2)C[C@H]1C`: the GI50 in experiment [18] was 76.6 µM (inactive); in [1] it was 50.1 µM (inactive); in [2] it was 92.9 µM (inactive); in experiment [3], > 100 µM (inactive); in [4] it was > 100 µM (inactive); in experiment [5], 12.3 µM (inactive). The GI50 in [7], in experiment [8], in [9], in experiment [10], in [11] and in experiment [12] was > 100 µM (inactive) throughout. The GI50 in experiment [13] is 13.6 µM (inactive); in experiment [14], > 100 µM (inactive); in experiment [15], > 100 µM (inactive); in experiment [16], 40 µM (inactive); in experiment [17], > 100 µM (inactive).

For `Cc1cc(O)c2c3c(ccc2c1)C(=O)c1c(O)cccc1C3=O` [TETRANGULOL], the GI50 in [18] was > 100 µM (inactive); in [2], 3.3 µM (inactive); in [3], 5.66 µM (inactive); in [4], 9.68 µM (inactive); in experiment [5] it was 0.397 µM (active); in experiment [6], 30.1 µM (inactive). The GI50 in experiment [7] is 2.21 µM (inactive); in experiment [8], > 40.9 µM (inactive); in experiment [9], 11.2 µM (inactive); in experiment [10] it was 7.46 µM (inactive); in [11], 19.9 µM (inactive); in experiment [12], 0.188 µM (active). The GI50 in experiment [13] is > 100 µM (inactive); in experiment [14], > 51.3 µM (inactive); in experiment [15], 3.98 µM (inactive); in [16], > 28.5 µM (inactive); in experiment [17], 3.88 µM (inactive).

Turning to `C=C1c2nc3ccccc3n2C=C(c2ccc(Cl)cc2)N1c1ccc(OCCN2CCOCC2)cc1`, the GI50 is > 100 µM (inactive) in experiment [18]; > 100 µM (inactive) in experiment [1]; 10.7 µM (inactive) in [2]; 34.7 µM (inactive) in [3]; 37.2 µM (inactive) in experiment [5]; 14.5 µM (inactive) in experiment [7]. Also, the GI50 in experiment [8] is 19.5 µM (inactive); in [9] it was 26.2 µM (inactive); in experiment [10] it was 25.2 µM (inactive); in experiment [11] it was > 100 µM (inactive); in experiment [12], 42.2 µM (inactive); in experiment [13] it was 50.8 µM (inactive). In addition, the GI50 in experiment [14] was > 100 µM (inactive); in experiment [15], 28.2 µM (inactive); in experiment [16] it was 2.91 µM (inactive); in [17] it was 11.4 µM (inactive).

Turning to `Oc1c(Br)cc(/C=C/c2cccc(/C=C/c3cc(Br)c(O)c(Br)c3)n2)cc1Br`, the GI50 in experiment [18] was 8.2 µM (inactive); in [2] it was 15.5 µM (inactive); in experiment [3], 15 µM (inactive); in [4], 13 µM (inactive); in [5], 14.1 µM (inactive); in experiment [7] it was 13.4 µM (inactive). The GI50 in experiment [8] was 17.5 µM (inactive); in experiment [9], 8.81 µM (inactive); in experiment [10] it was 14.8 µM (inactive); in experiment [11] it was 9.98 µM (inactive); in experiment [12], 18.8 µM (inactive); in [13], 12.1 µM (inactive). The GI50 is 17.6 µM (inactive) in experiment [14], 11.5 µM (inactive) in experiment [16] and 5.66 µM (inactive) in experiment [17].

With `[O-][n+]1onc2c1/C(=N/O)CCC2`, the GI50 in experiment [18], in experiment [1], in [2], in experiment [3], in experiment [4] and in [5] was > 100 µM (inactive) in each case. The GI50 in experiment [6], in experiment [7], in experiment [8], in experiment [9], in [10] and in [11] was > 100 µM (inactive) each time. Also, the GI50 in [12], in experiment [14], in experiment [15], in experiment [16] and in [17] was > 100 µM (inactive) in each case.

As for `O=C1CS(=O)(=O)C(c2cccc(Oc3ccccc3)c2)N1C1CC1` (configuration not stated), the GI50 in experiment [1] was 26.9 µM (inactive); in experiment [2], 22.8 µM (inactive); in experiment [3], 64.7 µM (inactive); in [4] it was 38.5 µM (inactive); in experiment [5], 33 µM (inactive); in experiment [6], 60.1 µM (inactive). The GI50 in [8] was > 100 µM (inactive); in [9], 25.5 µM (inactive); in experiment [10], 37.2 µM (inactive); in [11], 50.1 µM (inactive); in experiment [12] it was 26.7 µM (inactive); in experiment [13], 23.4 µM (inactive). In addition, the GI50 was 62.2 µM (inactive) in experiment [14], 28 µM (inactive) in experiment [15] and 31.4 µM (inactive) in [17].

On to `Cc1c(NC(=O)CCl)c(=O)oc2c(C)c3occc(=O)c3cc12`, for which the GI50 was 16.9 µM (inactive) in experiment [18]; 6.79 µM (inactive) in [2]; 6.95 µM (inactive) in experiment [3]; 13.9 µM (inactive) in experiment [4]; 3.48 µM (inactive) in experiment [6]; 11.6 µM (inactive) in [7]. Besides, the GI50 in experiment [8] was 15.5 µM (inactive); in experiment [9] it was 11.6 µM (inactive); in [10], 13.9 µM (inactive); in [11], 15.8 µM (inactive); in experiment [12] it was 16.1 µM (inactive); in [13], 14.2 µM (inactive). In addition, the figures for the GI50 in [14], in [16] and in experiment [17] were 18.5 µM (inactive), 7.87 µM (inactive) and 11.7 µM (inactive), respectively.

The values are drawn from ChEMBL document CHEMBL1201862, “PubChem BioAssay data set” (2004).
